# Results as given in patent US20050239656A1, “Pyridine compounds or salts thereof and herbicides containing the same” (priority 2002, published 2005).
# Experiments:
# [1] = tested on: barnyardgrass; assay: Test Example 1: foliage treatment, upland pot test; assay type: in vivo, Echinochloa crus-galli L.; details: active ingredient 1000 g/ha, observed 18th to 23rd day, 0 = non-treated, 100 = complete kill
# How it was run: (§1)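 Each plant species was sprayed once on its foliage, with wheat at 1.3–2.4, soybean at 0.1–0.4, barnyardgrass at 1.3–2.8 and rice at 1.2–2.6 leaves. Visual ratings of growth inhibition, 0 to 100%, followed 18–23 days later.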
# [2] = tested on: crabgrass; assay: Test Example 1: foliage treatment, upland pot test; assay type: in vivo, Digitaria sanguinalis L.; details: active ingredient 1000 g/ha, observed 18th to 23rd day, 0 = non-treated, 100 = complete kill
# [3] = tested on: green foxtail; assay: Test Example 1: foliage treatment, upland pot test; assay type: in vivo, Setaria viridis L.; details: active ingredient 1000 g/ha, observed 18th to 23rd day, 0 = non-treated, 100 = complete kill
# [4] = tested on: redroot pigweed; assay: Test Example 1: foliage treatment, upland pot test; assay type: in vivo, Amaranthus retroflexus L.; details: active ingredient 1000 g/ha, observed 18th to 23rd day, 0 = non-treated, 100 = complete kill
# [5] = tested on: prickly sida; assay: Test Example 1: foliage treatment, upland pot test; assay type: in vivo, Sida spinosa L.; details: active ingredient 1000 g/ha, observed 18th to 23rd day, 0 = non-treated, 100 = complete kill
# [6] = tested on: velvetleaf; assay: Test Example 1: foliage treatment, upland pot test; assay type: in vivo, Abutilon theophrasti MEDIC.; details: active ingredient 1000 g/ha, observed 18th to 23rd day, 0 = non-treated, 100 = complete kill
# [7] = tested on: tall morningglory; assay: Test Example 1: foliage treatment, upland pot test; assay type: in vivo, Ipomoea purpurea L.; details: active ingredient 1000 g/ha, observed 18th to 23rd day, 0 = non-treated, 100 = complete kill
# Text: Upland field soil was put into a 1/170,000 ha pot, and seed of various plants were sown. Then, when the plants reached predetermined leaf stages ((1) barnyardgrass: 1.3 to 2.8 leaf stages, (2) crabgrass: 1.0 to 2.8 leaf stages, (3) green foxtail: 1.3 to 2.6 leaf stages, (4) redroot pigweed: 0.1 to 1.2 leaf stages, (5) prickly sida: 0.1 to 1.2 leaf stages, (6) velvetleaf: 0.1 to 1.2 leaf stages, (7) tall morningglory: 0.1 to 1.5 leaf stages, (8) rice: 1.2 to 2.6 leaf stages, (9) wheat: 1.3 to 2.4 leaf stages, (10) corn, 2.1 to 3.2 leaf stages, (11) soybean: 0.1 to 0.4 leaf stage), a wettable powder or emulsifiable concentrate having the compound of the present invention formulated in accordance with a usual formulation method, was weighed so that the active ingredient would be a predetermined amount, and diluted with water in an amount of 500 L/ha. To the diluted solution, 0.1% (v/v) of agricultural spreader was added. The herbicide thus adjusted was applied by a small size sprayer for foliage treatment. On the 18th to 23rd days after the application of the herbicide, the growth of the respective plants was visually observed, and the herbicidal effects were evaluated by the growth controlling degrees (%) ranging from 0 (equivalent to the non-treated plot) to 100 (complete kill), whereby the results shown in Table 3, were obtained.
# [8] = tested on: rice; assay: Test Example 1: foliage treatment, upland pot test; assay type: in vivo, Oryza sativa L.; details: crop, active ingredient 1000 g/ha, observed 18th to 23rd day, 0 = non-treated, 100 = complete kill
# How it was run: as §1
# [9] = tested on: wheat; assay: Test Example 1: foliage treatment, upland pot test; assay type: in vivo, Triticum spp.; details: crop, active ingredient 1000 g/ha, observed 18th to 23rd day, 0 = non-treated, 100 = complete kill
# How it was run: as §1
# [10] = tested on: corn; assay: Test Example 1: foliage treatment, upland pot test; assay type: in vivo, Zea mays L.; details: crop, active ingredient 1000 g/ha, observed 18th to 23rd day, 0 = non-treated, 100 = complete kill
# How it was run: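 In this upland pot foliage test, corn plants at 2.1 to 3.2 leaf stages were sprayed by a small size sprayer. The spray was a conventionally formulated wettable powder or emulsifiable concentrate weighed to a set active ingredient amount, diluted in water at 500 L/ha, plus 0.1% (v/v) agricultural spreader. Visual assessment on days 18 to 23 gave growth controlling degree (%), where 0 equals untreated and 100 means complete kill.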
# [11] = tested on: soybean; assay: Test Example 1: foliage treatment, upland pot test; assay type: in vivo, Glycine max Merr.; details: crop, active ingredient 1000 g/ha, observed 18th to 23rd day, 0 = non-treated, 100 = complete kill
# How it was run: as §1
# [12] = tested on: barnyardgrass; assay: Test Example 2: soil surface treatment, upland pot test; assay type: in vivo, Echinochloa crus-galli L.; details: active ingredient 1000 g/ha, observed 20th to 28th day, 0 = non-treated, 100 = complete kill
# How it was run: (§2)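 Visual growth-control ratings, from 0 (like the non-treated plot) to 100 (total kill), were made between days 20 and 28 after a soil-surface spray. The compound, formulated as wettable powder or emulsifiable concentrate and diluted at 1,500 L/ha, went on one day post-sowing in upland-soil pots of 1/170,000 ha.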
# [13] = tested on: crabgrass; assay: as above; assay type: in vivo, Digitaria sanguinalis L.; details: active ingredient 1000 g/ha, observed 20th to 28th day
# How it was run: as §2
# [14] = tested on: green foxtail; assay: as above; assay type: in vivo, Setaria viridis L.; details: active ingredient 1000 g/ha, observed 20th to 28th day
# How it was run: as §2
# [15] = tested on: redroot pigweed; assay: as above; assay type: in vivo, Amaranthus retroflexus L.; details: active ingredient 1000 g/ha, observed 20th to 28th day
# How it was run: as §2
# [16] = tested on: prickly sida; assay: as above; assay type: in vivo, Sida spinosa L.; details: active ingredient 1000 g/ha, observed 20th to 28th day
# How it was run: as §2
# [17] = tested on: velvetleaf; assay: as above; assay type: in vivo, Abutilon theophrasti MEDIC.; details: active ingredient 1000 g/ha, observed 20th to 28th day
# How it was run: as §2
# [18] = tested on: rice; assay: as above; assay type: in vivo, Oryza sativa L.; details: active ingredient 1000 g/ha, observed 20th to 28th day
# How it was run: as §2
# [19] = tested on: wheat; assay: as above; assay type: in vivo, Triticum spp.; details: active ingredient 1000 g/ha, observed 20th to 28th day
# How it was run: as §2
# [20] = tested on: corn; assay: as above; assay type: in vivo, Zea mays L.; details: active ingredient 1000 g/ha, observed 20th to 28th day
# How it was run: as §2
# [21] = tested on: soybean; assay: as above; assay type: in vivo, Glycine max Merr.; details: active ingredient 1000 g/ha, observed 20th to 28th day
# How it was run: as §2
# [22] = tested on: barnyardgrass; assay: Test Example 3: paddy pot test, application under submerged conditions; assay type: in vivo, Echinochloa crus-galli L.; details: submerged application at 0.5 leaf stage, visually observed 14 days after application, 0 = non-treated, 100 = complete kill
# How it was run: (§3)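 After sowing seeds and planting wapato tubers in flooded paddy soil, an aqueous dilution of the formulated compound was added to the 3–4 cm flood water at early leaf stage. Percent growth control relative to the untreated plot was assessed visually on day 14.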
# [23] = tested on: japanese bulrush; assay: as above; assay type: in vivo, Scirpus juncoides; details: submerged application at 0.5 leaf stage, visually observed 14 days after application, 0 = non-treated, 100 = complete kill
# How it was run: as §3
# [24] = tested on: japanese ribbon wapato; assay: as above; assay type: in vivo, Sagittaria pygniaea; details: submerged application at primary leaf stage, visually observed 14 days after application, 0 = non-treated, 100 = complete kill
# How it was run: as §3
# [25] = tested on: rice (var. Nihonbare); assay: Test Example 3: paddy pot test, transplanted rice; assay type: in vivo, Oryza sativa L.; details: applied 4th day after transplantation, visually observed 21st day after application, 0 = non-treated, 100 = complete kill
# How it was run: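 Rice (2-leaf stage) was transplanted 3 cm deep into puddled, leveled paddy soil under 3–4 cm flooding. On day 4 after transplanting, diluted wettable powder or emulsifiable concentrate was pipetted onto the water at a predetermined active-ingredient dose. Growth control (0 = untreated, 100 = complete kill) was scored visually 21 days later.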
Structure (SMILES),Growth controlling degree (%) Barnyardgrass [1],Growth controlling degree (%) Crabgrass [2],Growth controlling degree (%) Green foxtail [3],Growth controlling degree (%) Redroot pigweed [4],Growth controlling degree (%) Prickly sida [5],Growth controlling degree (%) Velvetleaf [6],Growth controlling degree (%) Tall morningglory [7],Growth controlling degree (%) Rice [8],Growth controlling degree (%) wheat [9],Growth controlling degree (%) Corn [10],Growth controlling degree (%) Soybean [11],Growth controlling degree (%) Barnyardgrass [12],Growth controlling degree (%) Crabgrass [13],Growth controlling degree (%) Green foxtail [14],Growth controlling degree (%) Redroot pigweed [15],Growth controlling degree (%) Prickly sida [16],Growth controlling degree (%) Velvetleaf [17],Growth controlling degree (%) Rice [18],Growth controlling degree (%) wheat [19],Growth controlling degree (%) Corn [20],further results
CC(C)C(c1cnccc1C(F)(F)F)N(C)C(=O)Cc1ccccc1Br (stereo not drawn) [I-15],70%,70%,80%,70%,80%,70%,80%,10%,20%,0%,40%,100%,100%,100%,70%,70%,60%,40%,30%,40%,Growth controlling degree (%) Soyabean [21]: 20%; Growth controlling degree (%) Barnyardgrass ([22]; active ingredient 250 g/ha): 100%; Growth controlling degree (%) Japanese bulrush ([23]; active ingredient 250 g/ha): 95%; Growth controlling degree (%) Japanese ribbon wapato ([24]; active ingredient 250 g/ha): 100%; Growth controlling degree (%) Rice ([25]; active ingredient 250 g/ha): 10%
CC(C)C(c1cnccc1C(F)(F)F)N(C)C(=O)Cc1ccc(Br)cc1 (stereo not drawn) [I-10],90%,95%,90%,90%,90%,95%,95%,30%,30%,60%,90%,100%,100%,100%,60%,60%,60%,30%,20%,10%,Growth controlling degree (%) Soyabean [21]: 30%; Growth controlling degree (%) Barnyardgrass ([22]; active ingredient 500 g/ha): 100%; Growth controlling degree (%) Japanese bulrush ([23]; active ingredient 500 g/ha): 98%; Growth controlling degree (%) Japanese ribbon wapato ([24]; active ingredient 500 g/ha): 10%; Growth controlling degree (%) Rice ([25]; active ingredient 500 g/ha): 10%
CCC(=O)N(C)C(c1cnccc1C(F)(F)F)c1cccc2ccccc12 (stereo not drawn) [I-43],70%,90%,70%,70%,80%,95%,90%,10%,10%,10%,10%,90%,100%,98%,60%,70%,0%,10%,40%,30%,Growth controlling degree (%) Soyabean [21]: 10%; Growth controlling degree (%) Barnyardgrass ([22]; active ingredient 500 g/ha): 100%; Growth controlling degree (%) Japanese bulrush ([23]; active ingredient 500 g/ha): 100%; Growth controlling degree (%) Japanese ribbon wapato ([24]; active ingredient 500 g/ha): 90%; Growth controlling degree (%) Rice ([25]; active ingredient 500 g/ha): 35%
CC(C)C(c1cnccc1C(F)(F)F)N(C)C(=O)Cc1ccc(I)cc1 (stereo not drawn) [I-2],90%,90%,70%,70%,90%,90%,90%,20%,20%,20%,90%,80%,90%,80%,70%,70%,0%,0%,0%,0%,Growth controlling degree (%) Soyabean [21]: 0%; Growth controlling degree (%) Barnyardgrass ([22]; active ingredient 250 g/ha): 100%; Growth controlling degree (%) Japanese bulrush ([23]; active ingredient 250 g/ha): 90%; Growth controlling degree (%) Japanese ribbon wapato ([24]; active ingredient 250 g/ha): 50%; Growth controlling degree (%) Rice ([25]; active ingredient 250 g/ha): 20%
CC(C)COC(=O)N(C)C(c1cnccc1C(F)(F)F)c1cccc2ccccc12 (stereo not drawn) [I-52],50%,80%,20%,60%,70%,95%,95%,10%,10%,60%,0%,–,–,–,–,–,–,–,–,–,–
